Experimental data taken from ChEMBL document CHEMBL5724806, “Unraveling interindividual differences and functional consequences of gut microbial metabolism of immunosuppressants” (2024).

Experiments:
Format in all cases: ADME
[1] = (§1) The drug is tested on the gut metagenome community of A-04 with ENA study accession number: PRJEB31790 for biotransformation under anaerobic condition. The drug concentrations were measured over 7 timepoints collected between 0 and 12 hours of incubation by liquid-chromatography-coupled mass spectrometry (LC–MS); design: dose 5 uM, timepoint 0, 0.75, 1.5, 3, 6, 9, 12 hours; conditions: 5 µM
[2] = as §1, with “A-07” for “A-04”, “microaerobic” for “anaerobic”; design: dose 5 uM, timepoint 0, 0.75, 1.5, 3, 6, 9, 12 hours; conditions: 5 µM
[3] = The drug is tested on Streptococcus salivarius strain: DSM20560 for biotransformation under anaerobic condition. The drug concentrations were measured over 6 timepoints collected between 0 and 12 hours of incubation by liquid-chromatography-coupled mass spectrometry (LC–MS); design: dose 5 uM, timepoint 0, 1.5, 3, 6, 9, 12 hours; conditions: 5 µM
[4] = The drug is tested on Akkermansia muciniphila strain: DSM22959 for biotransformation under anaerobic condition. The drug concentrations were measured over 6 timepoints collected between 0 and 12 hours of incubation by liquid-chromatography-coupled mass spectrometry (LC–MS); design: dose 5 uM, timepoint 0, 1.5, 3, 6, 9, 12 hours; conditions: 5 µM
[5] = The drug is tested on Alloscardovia omnicolens strain: DSM21503 for biotransformation under anaerobic condition. The drug concentrations were measured over 6 timepoints collected between 0 and 12 hours of incubation by liquid-chromatography-coupled mass spectrometry (LC–MS); design: dose 5 uM, timepoint 0, 1.5, 3, 6, 9, 12 hours; conditions: 5 µM
[6] = The drug is tested on Odoribacter splanchnicus strain: DSM20712 for biotransformation under anaerobic condition. The drug concentrations were measured over 6 timepoints collected between 0 and 12 hours of incubation by liquid-chromatography-coupled mass spectrometry (LC–MS); design: dose 5 uM, timepoint 0, 1.5, 3, 6, 9, 12 hours; conditions: 5 µM
[7] = The drug is tested on Escherichia coli strain: DSM27469 for biotransformation under anaerobic condition. The drug concentrations were measured over 6 timepoints collected between 0 and 12 hours of incubation by liquid-chromatography-coupled mass spectrometry (LC–MS); design: dose 5 uM, timepoint 0, 1.5, 3, 6, 9, 12 hours; conditions: 5 µM
[8] = as §1, with “A-06” for “A-04”, “microaerobic” for “anaerobic”; design: dose 5 uM, timepoint 0, 0.75, 1.5, 3, 6, 9, 12 hours; conditions: 5 µM
[9] = as §1, with “T-01” for “A-04”; design: dose 5 uM, timepoint 0, 0.75, 1.5, 3, 6, 9, 12 hours; conditions: 5 µM
[10] = The drug is tested on Gemella haemolysans strain: DSM107751 for biotransformation under anaerobic condition. The drug concentrations were measured over 6 timepoints collected between 0 and 12 hours of incubation by liquid-chromatography-coupled mass spectrometry (LC–MS); design: dose 5 uM, timepoint 0, 1.5, 3, 6, 9, 12 hours; conditions: 5 µM
[11] = The drug is tested on Streptococcus mitis strain: DSM12643 for biotransformation under microaerobic condition. The drug concentrations were measured over 6 timepoints collected between 0 and 12 hours of incubation by liquid-chromatography-coupled mass spectrometry (LC–MS); design: dose 5 uM, timepoint 0, 1.5, 3, 6, 9, 12 hours; conditions: 5 µM
[12] = The drug is tested on Ruminococcus gnavus strain: ATCC29149 for biotransformation under anaerobic condition. The drug concentrations were measured over 6 timepoints collected between 0 and 12 hours of incubation by liquid-chromatography-coupled mass spectrometry (LC–MS); design: dose 5 uM, timepoint 0, 1.5, 3, 6, 9, 12 hours; conditions: mediterraneibacter gnavus, 5 µM
[13] = The drug is tested on Eubacterium eligens strain: DSM3376 for biotransformation under anaerobic condition. The drug concentrations were measured over 6 timepoints collected between 0 and 12 hours of incubation by liquid-chromatography-coupled mass spectrometry (LC–MS); design: dose 5 uM, timepoint 0, 1.5, 3, 6, 9, 12 hours; conditions: lachnospira eligens, 5 µM
[14] = The drug is tested on Clostridium ramosum strain: DSM1402 for biotransformation under anaerobic condition. The drug concentrations were measured over 6 timepoints collected between 0 and 12 hours of incubation by liquid-chromatography-coupled mass spectrometry (LC–MS); design: dose 5 uM, timepoint 0, 1.5, 3, 6, 9, 12 hours; conditions: thomasclavelia ramosa, 5 µM
[15] = The drug is tested on Lactobacillus reuteri strain: DSM20016 for biotransformation under anaerobic condition. The drug concentrations were measured over 6 timepoints collected between 0 and 12 hours of incubation by liquid-chromatography-coupled mass spectrometry (LC–MS); design: dose 5 uM, timepoint 0, 1.5, 3, 6, 9, 12 hours; conditions: limosilactobacillus reuteri, 5 µM
[16] = as §1, with “A-07” for “A-04”; design: dose 5 uM, timepoint 0, 0.75, 1.5, 3, 6, 9, 12 hours; conditions: 5 µM
[17] = The drug is tested on Streptococcus salivarius strain: DSM20560 for biotransformation under microaerobic condition. The drug concentrations were measured over 6 timepoints collected between 0 and 12 hours of incubation by liquid-chromatography-coupled mass spectrometry (LC–MS); design: dose 5 uM, timepoint 0, 1.5, 3, 6, 9, 12 hours; conditions: 5 µM
[18] = The drug is tested on Lactobacillus fermentum strain: DSM20052 for biotransformation under microaerobic condition. The drug concentrations were measured over 6 timepoints collected between 0 and 12 hours of incubation by liquid-chromatography-coupled mass spectrometry (LC–MS); design: dose 5 uM, timepoint 0, 1.5, 3, 6, 9, 12 hours; conditions: limosilactobacillus fermentum, 5 µM
[19] = The drug is tested on Gemella morbillorum strain: DSM20572 for biotransformation under anaerobic condition. The drug concentrations were measured over 6 timepoints collected between 0 and 12 hours of incubation by liquid-chromatography-coupled mass spectrometry (LC–MS); design: dose 5 uM, timepoint 0, 1.5, 3, 6, 9, 12 hours; conditions: 5 µM
[20] = as §1, with “A-01” for “A-04”, “microaerobic” for “anaerobic”; design: dose 5 uM, timepoint 0, 0.75, 1.5, 3, 6, 9, 12 hours; conditions: 5 µM
[21] = as §1, with “A-05” for “A-04”, “microaerobic” for “anaerobic”; design: dose 5 uM, timepoint 0, 0.75, 1.5, 3, 6, 9, 12 hours; conditions: 5 µM
[22] = The drug is tested on Bacteroides xylanisolvens strain: HM 722 for biotransformation under anaerobic condition. The drug concentrations were measured over 6 timepoints collected between 0 and 12 hours of incubation by liquid-chromatography-coupled mass spectrometry (LC–MS); design: dose 5 uM, timepoint 0, 1.5, 3, 6, 9, 12 hours; conditions: 5 µM
[23] = The drug is tested on Coprococcus comes strain: ATCC27758 for biotransformation under anaerobic condition. The drug concentrations were measured over 6 timepoints collected between 0 and 12 hours of incubation by liquid-chromatography-coupled mass spectrometry (LC–MS); design: dose 5 uM, timepoint 0, 1.5, 3, 6, 9, 12 hours; conditions: 5 µM
[24] = as §1, with “P-01” for “A-04”, “microaerobic” for “anaerobic”; design: dose 5 uM, timepoint 0, 0.75, 1.5, 3, 6, 9, 12 hours; conditions: 5 µM
[25] = The drug is tested on Bacteroides ovatus strain: ATCC 8483 for biotransformation under anaerobic condition. The drug concentrations were measured over 6 timepoints collected between 0 and 12 hours of incubation by liquid-chromatography-coupled mass spectrometry (LC–MS); design: dose 5 uM, timepoint 0, 1.5, 3, 6, 9, 12 hours; conditions: 5 µM
[26] = The drug is tested on Eubacterium hallii strain: DSM3353 for biotransformation under anaerobic condition. The drug concentrations were measured over 6 timepoints collected between 0 and 12 hours of incubation by liquid-chromatography-coupled mass spectrometry (LC–MS); design: dose 5 uM, timepoint 0, 1.5, 3, 6, 9, 12 hours; conditions: anaerobutyricum hallii, 5 µM
[27] = as §1, with “P-03” for “A-04”, “microaerobic” for “anaerobic”; design: dose 5 uM, timepoint 0, 0.75, 1.5, 3, 6, 9, 12 hours; conditions: 5 µM
[28] = The drug is tested on Alloscardovia omnicolens strain: DSM21503 for biotransformation under microaerobic condition. The drug concentrations were measured over 6 timepoints collected between 0 and 12 hours of incubation by liquid-chromatography-coupled mass spectrometry (LC–MS); design: dose 5 uM, timepoint 0, 1.5, 3, 6, 9, 12 hours; conditions: 5 µM
[29] = as §1, with “P-04” for “A-04”, “microaerobic” for “anaerobic”; design: dose 5 uM, timepoint 0, 0.75, 1.5, 3, 6, 9, 12 hours; conditions: 5 µM

| Bacterial Biotransformation [1] | Bacterial Biotransformation [2] | Bacterial Biotransformation [3] | Bacterial Biotransformation [4] | Bacterial Biotransformation [5] | Bacterial Biotransformation [6] | Bacterial Biotransformation [7] | Bacterial Biotransformation [8] | Bacterial Biotransformation [9] | Bacterial Biotransformation [11] | Bacterial Biotransformation [12] | Bacterial Biotransformation [13] | Bacterial Biotransformation [14] | Bacterial Biotransformation [15] | Bacterial Biotransformation [16] | Bacterial Biotransformation [17] | Bacterial Biotransformation [18] | Bacterial Biotransformation [19] | Bacterial Biotransformation [20] | SMILES | Bacterial Biotransformation [10] | also measured |
| --- | --- | --- | --- | --- | --- | --- | --- | --- | --- | --- | --- | --- | --- | --- | --- | --- | --- | --- | --- | --- | --- |
| Compound metabolized | Compound metabolized | Compound NOT metabolized | Compound NOT metabolized | Compound NOT metabolized | Compound NOT metabolized | Compound NOT metabolized | Compound metabolized | Compound NOT metabolized | Compound metabolized | Compound NOT metabolized | Compound metabolized | Compound NOT metabolized | Compound NOT metabolized | Compound NOT metabolized | Compound NOT metabolized | Compound NOT metabolized | Compound NOT metabolized | Compound NOT metabolized | CNC(=C[N+](=O)[O-])NCCSCc1ccc(CN(C)C)o1 [RANITIDINE] | Compound NOT metabolized | Bacterial Biotransformation [21]: Compound NOT metabolized; Bacterial Biotransformation [22]: Compound metabolized; Bacterial Biotransformation [23]: Compound NOT metabolized; Bacterial Biotransformation [24]: Compound metabolized; Bacterial Biotransformation [25]: Compound metabolized; Bacterial Biotransformation [26]: Compound NOT metabolized; Bacterial Biotransformation [27]: Compound NOT metabolized; Bacterial Biotransformation [28]: Compound NOT metabolized; Bacterial Biotransformation [29]: Compound NOT metabolized |
| Compound NOT metabolized | Compound NOT metabolized | Compound NOT metabolized | Compound NOT metabolized | Compound NOT metabolized | Compound NOT metabolized | Compound NOT metabolized | Compound NOT metabolized | Compound NOT metabolized | Compound NOT metabolized | Compound NOT metabolized | Compound NOT metabolized | Compound NOT metabolized | Compound NOT metabolized | Compound NOT metabolized | Compound NOT metabolized | Compound NOT metabolized | Compound NOT metabolized | Compound NOT metabolized | CC(C)NCC(O)COc1ccc(CC(N)=O)cc1 (configuration not stated) [ATENOLOL] | Compound NOT metabolized | Bacterial Biotransformation [21]: Compound NOT metabolized; Bacterial Biotransformation [22]: Compound NOT metabolized; Bacterial Biotransformation [23]: Compound NOT metabolized; Bacterial Biotransformation [24]: Compound NOT metabolized; Bacterial Biotransformation [25]: Compound NOT metabolized; Bacterial Biotransformation [26]: Compound NOT metabolized; Bacterial Biotransformation [27]: Compound NOT metabolized; Bacterial Biotransformation [28]: Compound NOT metabolized; Bacterial Biotransformation [29]: Compound NOT metabolized |
| Compound metabolized | Compound metabolized | Compound NOT metabolized | Compound NOT metabolized | Compound NOT metabolized | Compound NOT metabolized | Compound NOT metabolized | Compound metabolized | Compound NOT metabolized | Compound NOT metabolized | Compound NOT metabolized | Compound NOT metabolized | Compound NOT metabolized | Compound NOT metabolized | Compound metabolized | Compound metabolized | Compound NOT metabolized | Compound NOT metabolized | Compound metabolized | COc1ccc([C@@H]2Sc3ccccc3N(CCN(C)C)C(=O)[C@@H]2OC(C)=O)cc1 [DILTIAZEM] | Compound NOT metabolized | Bacterial Biotransformation [21]: Compound metabolized; Bacterial Biotransformation [22]: Compound metabolized; Bacterial Biotransformation [23]: Compound NOT metabolized; Bacterial Biotransformation [24]: Compound metabolized; Bacterial Biotransformation [25]: Compound metabolized; Bacterial Biotransformation [26]: Compound NOT metabolized; Bacterial Biotransformation [27]: Compound metabolized; Bacterial Biotransformation [28]: Compound NOT metabolized; Bacterial Biotransformation [29]: Compound NOT metabolized |
